According to ChEMBL document CHEMBL5653633, “G1 cell cycle arrest and apoptosis are induced in NIH 3T3 cells by KN-93, an inhibitor of CaMK-II (the multifunctional Ca2+/CaM kinase)” (Cell Growth Differ, 1995):
Values belong to the compound of their own block, whether it stands above or below them. Active and inactive are the calls of the source. No cut-off for these calls is given here.

Experiments:
NIH3T3 [1] = assay: Induction of cell cycle arrest in mouse NIH3T3 cells assessed as decreased accumulation of cells at G2 phase at 10 uM incubated for 1 to 3 days by propidium iodide staining based flow cytometry analysis; assay type: toxicity; conditions: nih3t3, 10 µM, time 1-3 day
NIH3T3 [2] = assay: Inhibition of CAMK-II in mouse NIH3T3 cells assessed as decrease in cell number by MTT assay; assay type: cell-based
[3] = (§1) Inhibition of CAMK-II in mouse NIH3T3 cells using autocamtide-2 as substrate […]; assay type: cell-based
NIH3T3 [4] = assay: Inhibition of CAMK-II in mouse NIH3T3 cells assessed as morphological changes at 10 to 24 uM incubated for 1 day in presence of fetal bovine serum by phase contrast microscopy analysis; assay type: cell-based; conditions: dose 10-24 µM
NIH3T3 [5] = assay: Cytotoxicity against PDGF-BB stimulated mouse NIH3T3 cells assessed as growth inhibition incubated for 72 hrs by MTT assay; assay type: functional, cell-based; conditions: NIH3T3, 72 h
NIH3T3 [6] = assay: Induction of cell cycle arrest in mouse NIH3T3 cells assessed as accumulation of hypodiploid cells at 24 uM incubated for 3 days by propidium iodide staining based flow cytometry analysis; assay type: toxicity; conditions: nih3t3, 72 h, time 3 day
NIH3T3 [7] = assay: Cytotoxicity against IGF-1 stimulated mouse NIH3T3 cells assessed as growth inhibition incubated for 72 hrs by MTT assay; assay type: functional, cell-based; conditions: NIH3T3, 72 h
NIH3T3 [8] = assay: Cytotoxicity against EGF stimulated mouse NIH3T3 cells assessed as growth inhibition incubated for 72 hrs by MTT assay; assay type: functional, cell-based; conditions: NIH3T3, 72 h
NIH3T3 [9] = assay: Induction of cell cycle arrest in mouse NIH3T3 cells assessed as decreased accumulation of cells at S phase at 10 uM incubated for 1 to 3 days by propidium iodide staining based flow cytometry analysis; assay type: toxicity; conditions: nih3t3, 10 µM, time 1-3 day
NIH3T3 [10] = assay: Inhibition of CAMK-II in mouse NIH3T3 cells assessed as accumulation of granules in presence of fetal bovine serum by phase contrast microscopy analysis; assay type: cell-based
NIH3T3 [11] = assay: Induction of cell cycle arrest in mouse NIH3T3 cells assessed as accumulation of cells at S phase at 10 uM incubated for 44 hrs followed by compound washout for 22 hrs by propidium iodide staining based flow cytometry analysis; assay type: toxicity; conditions: nih3t3, 44 h
NIH3T3 [12] = assay: Inhibition of CAMK-II in mouse NIH3T3 cells assessed as cell growth rate after compound rinsing at 4 to 16 uM incubated for 6 to 48 hrs by MTT assay; assay type: cell-based; conditions: dose 4-16 µM, time 6-48 hrs
NIH3T3 [13] = assay: Cytotoxicity against serum stimulated mouse NIH3T3 cells assessed as inhibition of cell growth incubated for 72 hrs by MTT assay; assay type: functional, cell-based; conditions: NIH3T3, 72 h
NIH3T3 [14] = assay: Cytotoxicity against EGF stimulated mouse NIH3T3 cells assessed as growth inhibition at 5 to 25 uM incubated for 72 hrs by MTT assay; assay type: functional, cell-based; conditions: dose 5-25 µM
NIH3T3 [15] = assay: Cytotoxicity against FGF stimulated mouse NIH3T3 cells assessed as growth inhibition incubated for 72 hrs by MTT assay; assay type: functional, cell-based; conditions: NIH3T3, 72 h
NIH3T3 [16] = assay: Inhibition of CAMK-II in mouse NIH3T3 cells assessed as decrease in cell number at 16 to 24 uM incubated for 3 days by MTT assay; assay type: cell-based; conditions: dose 16-24 µM, time 3.0 day
NIH3T3 [17] = assay: Cytotoxicity against IGF-1 stimulated mouse NIH3T3 cells assessed as growth inhibition at 5 to 25 uM incubated for 72 hrs by MTT assay; assay type: functional, cell-based; conditions: dose 5-25 µM
NIH3T3 [18] = assay: Induction of cell cycle arrest in mouse NIH3T3 cells assessed as accumulation of cells at G1 phase at 10 uM incubated for 1 day by propidium iodide staining based flow cytometry analysis (reference value: 54 %); assay type: toxicity; conditions: nih3t3, 24 h
NIH3T3 [19] = assay: Cytotoxicity against FGF stimulated mouse NIH3T3 cells assessed as growth inhibition at 5 to 25 uM incubated for 72 hrs by MTT assay; assay type: functional, cell-based; conditions: dose 5-25 µM
NIH3T3 [20] = assay: Induction of cell cycle arrest in mouse NIH3T3 cells assessed as accumulation of cells at G1 phase at 10 uM incubated for 2 to 3 day by propidium iodide staining based flow cytometry analysis (reference value: 54 %); assay type: toxicity; conditions: nih3t3, 10 µM, time 2-3 day
NIH3T3 [21] = assay: Inhibition of CAMK-II in mouse NIH3T3 cells assessed as inhibition of cell growth at 4 to 8 uM incubated for 3 days by MTT assay; assay type: cell-based; conditions: dose 4-8 µM, time 3.0 day
NIH3T3 [22] = assay: Induction of cell cycle arrest in mouse NIH3T3 cells assessed as accumulation of cells at G1 phase at 24 uM incubated for 3 days by propidium iodide staining based flow cytometry analysis; assay type: toxicity; conditions: nih3t3, 72 h, time 3 day
NIH3T3 [23] = assay: Induction of apoptosis in mouse NIH3T3 cells assessed as decreased cell viability in presence of terminal transferase and Fl-dUTP by TUNEL staining based fluorescence microscopy analysis; assay type: toxicity; conditions: dose lower 10 µM, time lower 2 day, dose upper 24 µM, time upper 3 day
NIH3T3 [24] = assay: Cytotoxicity against FGF stimulated mouse NIH3T3 cells assessed as decrease in cell number at 2 uM incubated for 72 hrs by MTT assay relative to control; assay type: functional; set-up: scale not given: the % may be the effect or the level left
[25] = Inhibition of CAMK-II in mouse NIH3T3 cells assessed as growth inhibition incubated for 2 to 3 days by phase contrast microscopy analysis; assay type: cell-based
NIH3T3 [26] = assay: Induction of cell cycle arrest in mouse NIH3T3 cells assessed as accumulation of cells at G2/M phase at 10 uM incubated for 44 hrs followed by compound washout for 22 hrs by propidium iodide staining based flow cytometry analysis; assay type: toxicity; conditions: nih3t3, 44 h
NIH3T3 [27] = assay: Inhibition of CAMK-II in mouse NIH3T3 cells assessed as decrease in cell count at 24 uM incubated for 2 to 3 days in presence of fetal bovine serum by phase contrast microscopy analysis; assay type: cell-based; conditions: time 2-3 day
NIH3T3 [28] = assay: Cytotoxicity against PDGF-BB stimulated mouse NIH3T3 cells assessed as growth inhibition at 5 to 25 uM incubated for 72 hrs by MTT assay; assay type: functional, cell-based; conditions: dose 5-25 µM
NIH3T3 [29] = assay: Cytotoxicity against serum stimulated mouse NIH3T3 cells assessed as decrease in cell number at 2 uM incubated for 72 hrs by MTT assay relative to control; assay type: functional; set-up: scale not given: the % may be the effect or the level left
NIH3T3 [30] = assay: as §1; assay type: cell-based
NIH3T3 [31] = assay: Induction of cell cycle arrest in mouse NIH3T3 cells by propidium iodide staining based flow cytometry analysis; assay type: toxicity

IC50 [3]: 12 µM
Compound: COc1ccc(S(=O)(=O)N(CCO)c2ccccc2CN(C)C/C=C/c2ccc(Cl)cc2)cc1
Activity (NIH3T3 [1]): Toxic | inhibition (NIH3T3 [2]): Active | inhibition (NIH3T3 [4]): Active | IC50 (NIH3T3 [5]): 6 µM | Activity (NIH3T3 [6]): Toxic | IC50 (NIH3T3 [7]): 6 µM | IC50 (NIH3T3 [8]): 6 µM | Activity (NIH3T3 [9]): Toxic | inhibition (NIH3T3 [10]): Active | Activity (NIH3T3 [11]): Non-Toxic | inhibition (NIH3T3 [12]): inactive | IC50 (NIH3T3 [13]): 12 µM | Activity (NIH3T3 [14]): Active | IC50 (NIH3T3 [15]): 6 µM | inhibition (NIH3T3 [16]): Active | Activity (NIH3T3 [17]): Active | Activity (NIH3T3 [18]): 79% | Activity (NIH3T3 [19]): Active | Activity (NIH3T3 [20]): 95% | inhibition (NIH3T3 [21]): Active | Activity (NIH3T3 [22]): Toxic | Activity (NIH3T3 [23]): Dose-Dependent Effect and Tde | Activity (NIH3T3 [24]): 35% | IC50 [25]: 1 µM | Activity (NIH3T3 [26]): Non-Toxic | inhibition (NIH3T3 [27]): Active | Activity (NIH3T3 [28]): Active | Activity (NIH3T3 [29]): 4%

Compound: COc1ccc(S(=O)(=O)Nc2ccccc2CN(C)C/C=C/c2ccc(Cl)cc2)cc1
inhibition (NIH3T3 [2]): inactive | inhibition (NIH3T3 [30]): inactive | Activity (NIH3T3 [31]): Not Active
